How the values were obtained:
Assay type in all cases: in vivo
[1] = test system: Botrytis cinerea; assay: Test F: tomato botrytis, preventive spray on tomato seedlings, visual disease rating
Description: (§1) General protocol for preparing test suspensions for Tests A-H: The test compounds were first dissolved in acetone in an amount equal to 3% of the final volume and then suspended at the desired concentration (in ppm) in acetone and purified water (50/50 mix) containing 250 ppm of the surfactant Trem® 014 (polyhydric alcohol esters). The resulting test suspensions were then used in tests A-H. Spraying a 200 ppm test suspension to the point of run-off on the test plants was the equivalent of a rate of 500 g/ha.
The test suspension was sprayed to the point of run-off on tomato seedlings. The following day the seedlings were inoculated with a spore suspension of Botrytis cinerea (the causal agent of tomato botrytis) and incubated in saturated atmosphere at 20° C. for 48 h, and then moved to a growth chamber at 24° C. for 3 additional days, after which time disease ratings were visually made.
(§2) Results for Tests A-H are given in Table A. In the table, a rating of 100 indicates 100% disease control and a rating of 0 indicates no disease control (relative to the controls). A dash (-) indicates no test results. All results are for compounds tested at 200 ppm except where the compound number is followed by “*” which indicates the compound was tested at 40 ppm.

[2] = test system: Erysiphe graminis f. sp. tritici; assay: Test A: wheat powdery mildew, preventive spray on wheat seedlings, visual disease rating
Description: as §1
The test suspension was sprayed to the point of run-off on wheat seedlings. The following day the seedlings were inoculated with a spore dust of Erysiphe graminis f. sp. tritici (the causal agent of wheat powdery mildew) and incubated in a growth chamber at 20° C. for 8 days, after which time disease ratings were visually made.
as §2

[3] = test system: Septoria tritici; assay: Test C: wheat leaf blotch, preventive spray on wheat seedlings, visual disease rating
Description: as §1
The test suspension was sprayed to the point of run-off on wheat seedlings. The following day the seedlings were inoculated with a spore suspension of Septoria tritici (the causal agent of wheat leaf blotch) and incubated in a saturated atmosphere at 20° C. for 48 h, and moved to a growth chamber at 20° C. for 19 additional days, after which time disease ratings were visually made.
as §2

[4] = test system: Alternaria solani; assay: Test E: tomato early blight, preventive spray on tomato seedlings, visual disease rating
Description: as §1
The test suspension was sprayed to the point of run-off on tomato seedlings. The following day the seedlings were inoculated with a spore suspension of Alternaria solani (the causal agent of tomato early blight) and incubated in a saturated atmosphere at 27° C. for 48 h, and then moved to a growth chamber at 20° C. for 5 days, after which time disease ratings were visually made.
as §2

[5] = test system: Puccinia recondite f. sp. tritici; assay: Test B: wheat leaf rust, preventive spray on wheat seedlings, visual disease rating
Description: as §1
The test suspension was sprayed to the point of run-off on wheat seedlings. The following day the seedlings were inoculated with a spore suspension of Puccinia recondite f. sp. tritici (the causal agent of wheat leaf rust) and incubated in a saturated atmosphere at 20° C. for 24 h, and then moved to a growth chamber at 20° C. for 7 days, after which time disease ratings were visually made.
as §2

[6] = test system: Septoria nodorum; assay: Test D: wheat glume blotch, preventive spray on wheat seedlings, visual disease rating
Description: as §1
The test suspension was sprayed to the point of run-off on wheat seedlings. The following day the seedlings were inoculated with a spore suspension of Septoria nodorum (the causal agent of wheat glume blotch) and incubated in a saturated atmosphere at 20° C. for 48 h, and then moved to a growth chamber at 20° C. for 7 days, after which time disease ratings were visually made.
as §2

[7] = 40 ppm (compound number followed by *)
[8] = 200 ppm, 100 = 100% disease control, 0 = no control

| SMILES | Test F rating (% disease control) [1, 7] | Test A rating (% disease control) [2, 7] | Test C rating (% disease control) [3, 7] | Test E rating (% disease control) [4, 7] | Test B rating (% disease control) [5, 7] | Test D rating (% disease control) [6, 7] | Test F rating (% disease control) [1, 8] | Test A rating (% disease control) [2, 8] | Test C rating (% disease control) [3, 8] | Test E rating (% disease control) [4, 8] | Test B rating (% disease control) [5, 8] | Test D rating (% disease control) [6, 8] | other results |
| --- | --- | --- | --- | --- | --- | --- | --- | --- | --- | --- | --- | --- | --- |
| COc1cc(OC)cc(-c2c(C(C)C)cnc(C)c2-c2c(F)cc(OC)cc2F)c1 [Compound 75] | 99% | 99% | 96% | 100% | 100% | 99% |  |  |  |  |  |  |  |
| COc1cc(OC)cc(-c2c(-c3c(F)cccc3F)cnc(Cl)c2-c2c(F)cccc2F)c1 [Compound 76] | 0% | 0% | 0% | 0% | 28% | 0% |  |  |  |  |  |  |  |
| C=C(C)c1cnc(C)c(-c2c(F)ccc(F)c2F)c1-c1cc(OC)cc(OC)c1 [Compound 77] | 84% | 100% | 92% | 99% | 99% | 0% |  |  |  |  |  |  |  |
| COc1cc(OC)cc(-c2c(C3CCOCC3)cnc(C)c2-c2c(F)cc(F)cc2F)c1 [Compound 79] | 91% | 97% | 93% | 100% | 100% | 95% |  |  |  |  |  |  |  |
| COc1cc(OC)cc(-c2c(-c3c(F)cc(F)cc3F)cnc(Cl)c2-c2c(F)cc(F)cc2F)c1 [Compound 80] |  |  |  |  |  |  | 0% | 95% | 57% | 64% | 97% | 0% |  |
| COc1cc(OC)cc(-c2c(-c3c(F)cccc3F)cnc(C#N)c2-c2c(F)cccc2F)c1 [Compound 81] |  |  |  |  |  |  | 46% | 78% | 93% | 98% | 96% | 0% |  |
| COc1ccc(-c2c(C)ncc(C(C)CO)c2-c2cc(OC)cc(OC)c2)cc1 (stereo not drawn) [Compound 82] |  |  |  |  |  |  | 98% | 97% | 95% | 98% | 98% | 69% |  |
| COc1cc(OC)cc(-c2c(C3CCSCC3)cnc(C)c2-c2ccc(F)cc2)c1 [Compound 84] | 49% | 96% | 96% | 0% | 98% | 0% |  |  |  |  |  |  |  |
| COc1cc(OC)cc(-c2c(-c3ccccc3)cnc(C)c2-c2ccccc2F)c1 [Compound 86] | 92% | 96% | 93% | 31% | 98% | 0% |  |  |  |  |  |  |  |
| COc1cc(OC)cc(-c2c(-c3ccccc3)cnc(C)c2-c2c(F)cccc2F)c1 [Compound 87] | 72% | 98% | 95% | 0% | 96% | 0% |  |  |  |  |  |  |  |
| COc1cc(OC)cc(-c2c(-c3ccc(F)cc3)cnc(C)c2-c2ccc(F)cc2)c1 [Compound 88] | 99% | 58% | 77% | 0% | 53% | 0% |  |  |  |  |  |  |  |
| COc1cc(OC)cc(-c2c(C(C)CO)cnc(C)c2-c2c(F)cccc2F)c1 (stereo not drawn) [Compound 90] | 71% | 0% | 90% | 98% | 74% | 0% |  |  |  |  |  |  |  |
| COc1cc(OC)cc(-c2c(C(C)CO)cnc(C)c2-c2c(F)cc(OC)cc2F)c1 (stereo not drawn) [Compound 92] | 94% | 76% | 96% | 100% | 99% | 82% |  |  |  |  |  |  |  |
| COc1cc(OC)cc(-c2c(-c3ccc(F)cc3)cnc(C)c2-c2c(F)cc(F)cc2F)c1 [Compound 93] | 98% | 96% | 93% | 21% | 91% | 0% |  |  |  |  |  |  |  |
| COc1cc(OC)cc(-c2c(-c3ccc(F)cc3)cnc(C)c2-c2ccccc2F)c1 [Compound 94] |  |  |  |  |  |  | 98% | 21% | 91% | 0% | 54% | 0% |  |
| COc1cc(OC)cc(-c2c(-c3ccc(F)cc3)cnc(C)c2-c2ccc(F)cc2F)c1 [Compound 95] |  |  |  |  |  |  | 87% | 93% | 96% | 73% | 99% | 0% |  |
| COc1cc(OC)cc(-c2c(CO)cnc(C)c2-c2c(F)cc(F)cc2F)c1 [Compound 96, 4-(3,5-dimethoxyphenyl)-6-methyl-5-(2,4,6-trifluorophenyl)-3-pyridinemethanol] |  |  |  |  |  |  |  |  |  |  |  |  | pest or weed control at 200 ppm ([1]; Botrytis cinerea, 120 h, 200 ppm, 100 = 100% disease control, 0 = no control): 98%; pest or weed control at 200 ppm ([2]; Blumeria graminis, 192 h, 200 ppm, 100 = 100% disease control, 0 = no control): 98%; pest or weed control at 200 ppm ([3]; Zymoseptoria tritici, 504 h, 200 ppm, 100 = 100% disease control, 0 = no control): 94%; pest or weed control at 200 ppm ([4]; Alternaria solani, 168 h, 200 ppm, 100 = 100% disease control, 0 = no control): 99%; pest or weed control at 200 ppm ([5]; 192 h, 200 ppm, 100 = 100% disease control, 0 = no control): 96%; pest or weed control at 200 ppm ([6]; Parastagonospora nodorum, 216 h, 200 ppm, 100 = 100% disease control, 0 = no control): 0% |
| COc1cc(OC)cc(-c2c(Cn3cccn3)cnc(C)c2-c2c(F)cc(F)cc2F)c1 [Compound 97] |  |  |  |  |  |  | 99% | 100% | 95% | 100% | 100% | 100% |  |
| CCC(O)(CC)c1cnc(C)c(-c2c(F)cc(F)cc2F)c1-c1cc(OC)cc(OC)c1 [Compound 98] |  |  |  |  |  |  | 93% | 86% | 92% | 9% | 92% | 0% |  |
| CCC(O)c1cnc(C)c(-c2c(F)cc(F)cc2F)c1-c1cc(OC)cc(OC)c1 (stereo not drawn) [Compound 99] |  |  |  |  |  |  | 98% | 100% | 94% | 100% | 100% | 100% |  |
| Cc1ncc(-c2ccccc2F)c(-c2cc(O)cc(O)c2)c1-c1ccc(F)cc1 [Compound 100] |  |  |  |  |  |  | 100% | 76% | 76% | 0% | 89% | 0% |  |
| Cc1ncc(-c2ccccc2F)c(-c2cc(OC(F)F)cc(OC(F)F)c2)c1-c1ccc(F)cc1 [Compound 101] |  |  |  |  |  |  | 96% | 82% | 96% | 0% | 89% | 0% |  |

Reference: patent US20110092544A1, “FUNGICIDAL PYRIDINES” (E.I. DU PONT DE nemours and company, priority 2008, published 2011)
